Values after ≈ are worked out from the molar mass of the structure shown.
Tests used:
K. pneumoniae = assay: MIC, broth dilution; assay type: cell-based; conditions: Klebsiella pneumoniae, aerobic
Rothia dentocariosa = assay: MIC, broth dilution; assay type: cell-based; conditions: DSM43762; Rothia dentocariosa (DSM 43762); aerobic
Escherichia coli = assay: MIC, broth dilution; assay type: cell-based; conditions: aerobic
Enteroccocus faecium = assay: MIC, broth dilution; assay type: cell-based; conditions: aerobic
E. faecalis = assay: MIC, broth dilution; assay type: cell-based; conditions: Enterococcus faecalis, aerobic
[1] = system: Faecalibacterium prausnitzii; assay: MIC, broth dilution; assay type: cell-based; conditions: anaerobic
B. adolescentis = assay: MIC, broth dilution; assay type: cell-based; conditions: Bifidobacterium adolescentis, DSM20083; B. adolescentis (DSM 20083); anaerobic
Fusobacterium ulcerans = assay: MIC, broth dilution; assay type: cell-based; conditions: DSM19847; Fusobacterium ulcerans (DSM 19847); anaerobic
[2] = system: Aggregatibacter actinomycetemcomitans; assay: MIC, broth dilution; assay type: cell-based; conditions: DSM11123; Aggregatibacter actinomycetemcomitans (DSM 11123); anaerobic
Porphiromonas gingivalis = assay: MIC, broth dilution; assay type: cell-based; conditions: Porphiromonas gingivalis (DSM 20709); anaerobic
Prevotella intermedia = assay: MIC, broth dilution; assay type: cell-based; conditions: DSM20706; Prevotella intermedia (DSM 20706); anaerobic
Veillonella parvula = assay: MIC, broth dilution; assay type: cell-based; conditions: DSM2007; Veillonella parvula DSM 2007; anaerobic
C. perfringens = assay: microbe, parasite or virus in culture; assay type: cell-based; conditions: Clostridium perfringens, DSM11783
Bacteroides fragilis = assay: MIC, broth dilution; assay type: cell-based; conditions: anaerobic
mTOR pathway = assay: Inhibition of mTOR and S6R phosphorylation in primary colonic epithelial cells, flow cytometry; assay type: cell-based, human
Experimental: To evaluate Rifamycin activity on the mTOR pathway, primary colonic epithelial cells were serum starved for 24 hr and restimulated with serum for 48 hr to induce phosphorylation of mTOR and its downstream target protein […]. Serum stimulated cells were treated with Rifamycin SV, Rifaximin, the positive control Rapamycin, or the negative vehicle control DMSO. Cells were fixed, stained with antibodies against pmTOR and pS6R then analyzed by flow cytometry.

[3] = Rifamycin concentration in colon of DSS mice, HPLC MS/MS; assay type: in vivo; conditions: enema 67 mg/kg, all the tested time-points
Experimental: For this study, a group of mice was treated by enema with Batch 7663 (indicated as CB0125 in the figures) (dose 45 mg/kg), one group was treated by enema with Placebo Batch 7679 as a comparator for 7663; a group was treated by enema with Rifamycin powder dissolved in water (67 mg/kg). One group of mice was treated orally PO with 5-ASA at the dose of 100 mg/Kg; this group was introduced as positive control. 5-ASA is the golden standard therapy for inflammatory bowel diseases, including UC, distal UC and proctitis. One group was treated by enema with the vehicle (H2O) only, as negative control.
For PK analysis colon samples were cut into in pieces and washed 3 times with PBS to remove surface contaminants.

CO[C@H]1/C=C/O[C@@]2(C)Oc3c(C)c(O)c4c(O)c(cc(O)c4c3C2=O)NC(=O)/C(C)=C\C=C\[C@H](C)[C@H](O)[C@@H](C)[C@@H](O)[C@@H](C)[C@H](OC(C)=O)[C@@H]1C [Rifamycin SV]
MIC (K. pneumoniae; DSM16609, K. pneumoniae (DSM 16609)): > 64 µg/mL | MIC (K. pneumoniae; DSM25721, K. pneumoniae (DSM 25721)): 64 µg/mL (≈ 91.7 µM) | MIC (Rothia dentocariosa): < 0.03 µg/mL | MIC (Escherichia coli; ATCC35218, Escherichia coli (ATCC 35218)): 50 µg/mL (≈ 71.7 µM) | MIC (Escherichia coli; Escherichia coli, ATCC11775, E. coli (ATCC 11775)): 16 µg/mL (≈ 22.9 µM) | MIC (Escherichia coli; Escherichia coli, ATCC25922, E. coli (ATCC 25922)): 64 µg/mL (≈ 91.7 µM) | MIC (Escherichia coli; Escherichia coli, ATCC51446, E. coli (ATCC 51446)): 200 µg/mL (≈ 287 µM) | MIC (Escherichia coli; Escherichia coli, DSM22312, E. coli (DSM 22312)): 32 µg/mL (≈ 45.9 µM) | MIC (Escherichia coli; Escherichia coli, DSM22313, E. coli (DSM 22313 )): 64 µg/mL (≈ 91.7 µM) | MIC (Escherichia coli; Escherichia coli, DSM22664, E. coli (DSM 22664 )): 32 µg/mL (≈ 45.9 µM) | MIC (Enteroccocus faecium; Enteroccocus faecium (0808711)): 100 µg/mL (≈ 143 µM) | MIC (Enteroccocus faecium; Enterococcus faecium, DSM17050, E. faecium (DSM 17050)): 64 µg/mL (≈ 91.7 µM) | MIC (Enteroccocus faecium; Enterococcus faecium, DSM25697, E. faecium (DSM 25697)): 1 µg/mL (≈ 1.43 µM) | MIC (Enteroccocus faecium; Enterococcus faecium, E. faecium (09006056)): 100 µg/mL (≈ 143 µM) | MIC (Enteroccocus faecium; Enterococcus faecium, E. faecium (DSM13590)): 32 µg/mL (≈ 45.9 µM) | MIC (E. faecalis; ATCC29212, E. faecalis (ATCC 29212)): 50 µg/mL (≈ 71.7 µM) | MIC (E. faecalis; DSM2570, E. faecalis (DSM 2570)): 200 µg/mL (≈ 287 µM) | MIC (E. faecalis; DSM2921, E. faecalis (DSM 2921)): 64 µg/mL (≈ 91.7 µM) | MIC (E. faecalis; DSM2981, E. faecalis (DSM 2981)): 200 µg/mL (≈ 287 µM) | MIC (E. faecalis; DSM6134, E. faecalis (DSM 6134)): 50 µg/mL (≈ 71.7 µM) | MIC (E. faecalis; E. faecalis (6172818861)): 12.5 µg/mL (≈ 17.9 µM) | MIC (E. faecalis; E. faecalis (C 46)): 12.5 µg/mL (≈ 17.9 µM) | MIC (E. faecalis; E. faecalis (E 83)): 3.12 µg/mL (≈ 4.47 µM) | MIC ([1]; DSM107839, Faecalibacterium prausnitzii (DSM 107839)): 0.06 µg/mL (≈ 0.086 µM) | MIC ([1]; Faecalibacterium prausnitzii, DSM17677, F. prausnitzii (DSM 17677)): < 0.03 µg/mL | MIC ([1]; Faecalibacterium prausnitzii, DSM107838, F. prausnitzii (DSM 107838)): < 0.03 µg/mL | MIC ([1]; Faecalibacterium prausnitzii, DSM107840, F. prausnitzii (DSM 107840)): < 0.03 µg/mL | MIC (B. adolescentis): 1 µg/mL (≈ 1.43 µM) | MIC (Fusobacterium ulcerans): 16 µg/mL (≈ 22.9 µM) | MIC [2]: < 0.3 µg/mL | MIC (Porphiromonas gingivalis): < 0.3 µg/mL | MIC (Prevotella intermedia): < 0.3 µg/mL | MIC (Veillonella parvula): < 0.03 µg/mL | MIC (C. perfringens): < 0.03 µg/mL | MIC (Bacteroides fragilis; Bacteroides fragilis, DSM1396, B. fragilis (DSM 1396)): 0.39 µg/mL (≈ 0.559 µM) | MIC (Bacteroides fragilis; Bacteroides fragilis, DSM9668, B. fragilis (DSM 9668)): 100 µg/mL (≈ 143 µM) | MIC (Bacteroides fragilis; Bacteroides fragilis, DSM9669, B. fragilis (DSM 9669)): 100 µg/mL (≈ 143 µM) | MIC (Bacteroides fragilis; Bacteroides fragilis, DSM9670, B. fragilis (DSM 9670)): 50 µg/mL (≈ 71.7 µM) | MIC (Bacteroides fragilis; Bacteroides fragilis, DSM9671, B. fragilis (DSM 9671)): 50 µg/mL (≈ 71.7 µM) | MIC (Bacteroides fragilis; DSM2151, Bacteroides fragilis (DSM 2151)): 0.78 µg/mL (≈ 1.12 µM) | IC50 (mTOR pathway; Homo sapiens, Epithelial cell, serum stimulated primary colonic epithelial cells, 48 hr, read-out: IC50, % cells positive for anti-pmTOR and anti-pS6R relative to DMSO): 9.9 µM | mTOR pathway potency, fold less potent than Rapamycin (mTOR pathway; ratio of IC50): 20 fold | mTOR pathway potency, fold more potent than Rifaximin (mTOR pathway; ratio of IC50): 4 fold | Rifamycin concentration in the colon homogenate [3]: lower than that of the animals treated with formulation 7663
